From patent US20220144826A1, “Heteroaromatic and Heterobicyclic Aromatic Derivatives for the Treatment of Ferroptosis-Related Disorders” (COLLABORATIVE MEDICINAL DEVELOPMENT, LLC, priority 2019, published 2022)

These compounds were tested on N27 rat dopaminergic neural cells (assay: MTT assay in N27 rat dopaminergic neural cells: inhibition of RSL3-induced cell death (ferroptosis)). Conditions: Rattus norvegicus, N27, 24 h, ferroptosis induced by 0.5 μM RSL3, 24 hours, viability by MTT.
Assay type: cell-based
Method: MTT Assay in N27 Rat Dopaminergic Neural Cells
N27 rat dopaminergic neural cells (Millipore, SCC048) were cultured in RPMI-1640 media (Wisent, 350-000) supplemented with 1×GlutaMAX (Gibco, 35050-061), 10% FBS (embryonic stem cell qualified; Wisent, 920-040), and 1× Penicillin-Streptomycin (Wisent, 450-201). Cells were grown in humidified tissue culture incubator at 37° C. with 5% CO2, for up to 10 passages. To evaluate the ability of test compounds to inhibit RSL3-induced cell death, N27 cells were seeded in clear 96-well tissue culture plates (Sarstedt, 83.3924) at a density of 15,000 cells/well. On the next day, the medium was changed to fresh complete RPMI-1640. Eight-point dilution series of test compounds were added to the cells. Then, ferroptosis was induced by addition of 0.5 μM RSL3 (vehicle-treated cells served as control). Ferrostatin-1 (Fer-1) was included in each assay as control inhibitor of ferroptosis. Plates were incubated for 24 hours at 37° C. in a tissue culture incubator, then cell viability was determined by MTT assay. Briefly, Thiazolyl Blue Tetrazolium Bromide [3-(4,5-dimethylthiazol-2-yl)-2,5-diphenyltetrazolium bromide or “MTT” ] (Sigma) stock solution (5 mg/mL in PBS, sterilized by filtration) was diluted 1:1 with complete growth medium, and added on the cells to a final concentration of 0.5 mg/mL. Cells were incubated with MTT for 4 hours at 37° C., protected from light, in a humidified, 5% CO2 atmosphere. Medium was then completely removed from the wells by gentle aspiration and converted MTT formazan crystals were dissolved in 150 μL of DMSO. Absorbance of converted dye was measured at 595 nm with background subtraction at 690 nm using the BioTek Cytation5 Microplate Reader. Blank reading (absorbance from wells containing media and vehicle only, no cells) was removed from all sample wells. Viability was calculated as a percentage of control cells (vehicle-treated cells were set as 100% viability). Dose-response curves were drawn and IC50 values were calculated using GraphPad Prism software, version 7.

Compound | IC50
CCOC(=O)c1cc2c(c(C(=O)C(F)(F)F)c1)NC(C)(C)C=C2 [Compound B-101, Ethyl 2,2-dimethyl-8-(2,2,2-trifluoroacetyl)-1,2-dihydroquinoline-6-carboxylate] | > 3000 nM
CON(C)C(=O)c1ccc2c(c1)C=CC(C)(C)N2 [Compound B-065] | > 3000 nM
c1cc(-c2ccc(NC3COC3)c(NC3CCCC3)n2)ccn1 [Compound H-77, N^2-cyclopentyl-N^3-(oxetan-3-yl)-6-(4-pyridyl)pyridine-2,3-diamine] | 13 nM
CCOC(=O)c1ccc(NC2CCCCC2)c(N)n1 [Compound B-626, FER-1] | 108 nM
CCCCC(=O)c1nc(NC2CCCC2)c2c(n1)OCCN2 [Compound B-763, 1-[4-(cyclopentylamino)-5H,6H,7H-pyrimido[4,5-b][1,4]oxazin-2-yl]pentan-1-one] | 391 nM
c1ncc(-c2ncc(NC3COC3)c(NC3CCCC3)n2)cn1 [Compound F-82, N^4-cyclopentyl-N^5-(oxetan-3-yl)-2-pyrimidin-5-yl-pyrimidine-4,5-diamine] | > 625 nM
CCCCC(OC)c1cc2c(c(Nc3ccccn3)c1)NCCC2 (centres unmarked) [Compound B-397, 6-(1-methoxypentyl)-N-(2-pyridyl)-1,2,3,4-tetrahydroquinolin-8-amine] | 70 nM
CCC/C=C/c1nc(NC2CCCC2)c2c(n1)OCCN2 [Compound B-710, N-cyclopentyl-2-[(E)-pent-1-enyl]-6,7-dihydro-5H-pyrimido[4,5-b][1,4]oxazin-4-amine] | 22 nM
CCCCC(=O)c1cc2c(c(N(S(=O)(=O)CC(C)C)S(=O)(=O)CC(C)C)c1)NCCC2 [Compound B-248, N-isobutylsulfonyl-2-methyl-N-(6-pentanoyl-1,2,3,4-tetrahydroquinolin-8-yl)propane-1-sulfonamide] | > 3000 nM
c1ccc(-c2cn(-c3nc4c(c(NC5CCCC5)n3)NCCC4)nn2)cc1 [Compound A-31, N-cyclopentyl-2-(4-phenyltriazol-1-yl)-5,6,7,8-tetrahydropyrido[3,2-d]pyrimidin-4-amine] | 21 nM
CCOC(=O)c1cc(N)c2c(c1)CCC(C)(C)N2 [Compound B-256] | 3820 nM
CCCCC(=O)c1cc2c(c(N3CCCC3=O)c1)NCCC2 [Compound Q-979, 1-(6-pentanoyl-1,2,3,4-tetrahydroquinolin-8-yl)pyrrolidin-2-one] | 1150 nM
CCC(C)Nc1cnc(-c2ccc(C)cc2)nc1NC1CCCC1 (centres unmarked) [Compound F-69, N^4-cyclopentyl-2-(p-tolyl)-N^5-sec-butyl-pyrimidine-4,5-diamine] | 28 nM
CCC(C)Nc1cnc(-c2ccncc2)nc1NC1CCCC1 (centres unmarked) [Compound F-88, N^4-cyclopentyl-2-(4-pyridyl)-N^5-sec-butyl-pyrimidine-4,5-diamine] | 106 nM
CCCC#Cc1nc2c(c(NC3CCCC3)n1)NCCC2 [Compound A-27, N-cyclopentyl-2-pent-1-ynyl-5,6,7,8-tetrahydropyrido[3,2-d]pyrimidin-4-amine] | 34 nM
CCCCC(=O)c1ccc2c(c1)C=CC(C)(C)N2 [Compound B-100, 1-(2,2-dimethyl-1,2-dihydroquinolin-6-yl)pentan-1-one] | 7440 nM
CCCCC(=O)c1nc2c(c(NC3CCCC3)n1)NCCC2 [Compound C-82, 1-[4-(cyclopentylamino)-5,6,7,8-tetrahydropyrido[3,2-d]pyrimidin-2-yl]pentan-1-one] | 84 nM
CCCCC(=O)c1cc2c(c(OC3CCCC3)c1)NCCC2 [Compound Q-980, 1-[8-(cyclopentoxy)-1,2,3,4-tetrahydroquinolin-6-yl]pentan-1-one] | > 3000 nM
CCCCC(=O)c1cc(F)c2c(c1)CCCN2 [Compound B-132] | > 3000 nM

Compound | IC50
CCC(C)Nc1ccc(-c2ccccn2)nc1NC1(C)CCOC1 [Compound L-22, N^2-(3-methyltetrahydrofuran-3-yl)-6-(2-pyridyl)-N^3-sec-butyl-pyridine-2,3-diamine] | 14 nM
CCC(C)Nc1ccc(-c2cccnc2)nc1NC1CCCC1 (centres unmarked) [Compound H-74, N^2-cyclopentyl-6-(3-pyridyl)-N^3-sec-butyl-pyridine-2,3-diamine] | 5 nM
CCC(C)Nc1ccc(-c2ccc(OC)cc2)nc1NC1CCCC1 (centres unmarked) [Compound H-86, N^2-cyclopentyl-6-(4-methoxyphenyl)-N^3-sec-butyl-pyridine-2,3-diamine] | 8 nM
CCC(C)Nc1ccc(-c2ccc(C)cc2)nc1NC(C)(C)C [Compound L-02, N^2-tert-butyl-6-(p-tolyl)-N^3-sec-butyl-pyridine-2,3-diamine] | 5 nM
Clc1nc2c(c(NC3CCCC3)n1)NCCC2 [Compound J-84] | 273 nM
CC(C)(C)C(=O)c1nc2c(c(NC3CCCC3)n1)NCCC2 [Compound A-35, 1-[4-(cyclopentylamino)-5,6,7,8-tetrahydropyrido[3,2-d]pyrimidin-2-yl]-2,2-dimethyl-propan-1-one] | 248 nM
O=C(c1ccccc1)c1nc2c(c(NC3CCCC3)n1)NCCC2 [Compound A-16, [4-(cyclopentylamino)-5,6,7,8-tetrahydropyrido[3,2-d]pyrimidin-2-yl]-phenyl-methanone] | 285 nM
CCCCC(=O)c1cc2c3c(c1)nc(C(F)(F)F)n3CCC2 [Compound B-099, 1-[2-(trifluoromethyl)-1,3-diazatricyclo[6.3.1.04,12]dodeca-2,4 (12),5,7-tetraen-6-yl]pentan-1-one] | > 3000 nM
CC1(Nc2nc(-c3ccc(F)cc3)ccc2NC2CCOCC2)CCOC1 (centres unmarked) [Compound N-53, 6-(4-fluorophenyl)-N^2-(3-methyltetrahydrofuran-3-yl)-N^3-tetrahydropyran-4-yl-pyridine-2,3-diamine] | 1 nM
CC1(Nc2nc(-c3ccc(F)cc3)nc3c2NCCC3)CCOC1 (centres unmarked) [Compound M-14, 2-(4-fluorophenyl)-N-(3-methyltetrahydrofuran-3-yl)-5,6,7,8-tetrahydropyrido[3,2-d]pyrimidin-4-amine] | 29 nM
CCCCC(=O)c1cc2c(c(NC3CCOC3)c1)NCCC2 (centres unmarked) [Compound Q-879, 1-[8-(tetrahydrofuran-3-ylamino)-1,2,3,4-tetrahydroquinolin-6-yl]pentan-1-one] | 16.8 nM
CCCCN(C)c1nc2c(c(NC3CCCC3)n1)NCCC2 [Compound B-434, N2-Butyl-N4-cyclopentyl-N2-methyl-5,6,7,8-tetrahydropyrido[3,2-d]pyrimidine-2,4-diamine] | 397 nM
CCCCC(=O)c1cc(N)c2c(c1)CCCN2 [Compound B-059, 1-(8-amino-1,2,3,4-tetrahydroquinolin-6-yl)pentan-1-one] | 149 nM
CCCCC(=O)c1cc2c(c(Nc3ccccn3)c1)NCCC2 [Compound B-249, 1-{8-[(pyridin-2-yl)amino]-1,2,3,4-tetrahydroquinolin-6-yl}pentan-1-one] | 343 nM
CCCCCc1nc2c(c(NC3CCCC3)n1)NC(C)(C)CC2 [Compound B-917, N-cyclopentyl-6,6-dimethyl-2-pentyl-5H,6H,7H,8H-pyrido[3,2-d]pyrimidin-4-amine] | > 3000 nM
CC#Cc1nc2c(c(NC3CCCC3)n1)NCCC2 [Compound A-12, N-cyclopentyl-2-prop-1-ynyl-5,6,7,8-tetrahydropyrido[3,2-d]pyrimidin-4-amine] | 109 nM
CC1(Nc2nc(C(F)(F)F)ccc2NC2CCOC2)CCOC1 (centres unmarked) [Compound K-67, N^2-(3-methyltetrahydrofuran-3-yl)-N^3-tetrahydrofuran-3-yl-6-(trifluoromethyl)pyridine-2,3-diamine] | 355 nM
CC(=O)c1nc2c(c(NC3CCCC3)n1)NCCC2 [Compound C-92, 1-[4-(cyclopentylamino)-5,6,7,8-tetrahydropyrido[3,2-d]pyrimidin-2-yl]ethanone] | 2070 nM
CCC(C)Nc1ccc(-c2cncnc2)nc1NC1CCCC1 (centres unmarked) [Compound H-80, N^2-cyclopentyl-6-pyrimidin-5-yl-N^3-sec-butyl-pyridine-2,3-diamine] | 7 nM

Same assay, conditions: Rattus norvegicus, N27, 24 h, ferroptosis induced by 0.5 μM RSL3, 24 hours, viability by MTT, cell unit uM

Compound | IC50
CCCCC(O)c1nc2c(c(Nc3ccccn3)n1)NCCC2 (centres unmarked) [Compound G-63, 1-[4-(2-pyridylamino)-5,6,7,8-tetrahydropyrido[3,2-d]pyrimidin-2-yl]pentan-1-ol] | > 10000 nM

Same assay, conditions: Rattus norvegicus, ferroptosis induced by 0.5 μM RSL3, 24 hours, viability by MTT

Compound | IC50
CCCCCc1nc(NC2CCCC2)c2c(n1)OCCN2 [Compound B-711, N-cyclopentyl-2-pentyl-5H,6H,7H-pyrimido[4,5-b][1,4]oxazin-4-amine] | 41 nM

Same assay, conditions: ferroptosis induced by 0.5 μM RSL3, 24 hours, viability by MTT

Compound | IC50
CCCCCc1nc2c(c(NC3CCCC3)n1)NCCC2 [Compound A-63, N-cyclopentyl-2-pentyl-5,6,7,8-tetrahydropyrido[3,2-d]pyrimidin-4-amine] | 313 nM
